Common to all, as to test: inhibition of tumour cell growth, NCI panel, 48 h
In test [1] the test system is DMS 114 small cell lung.
In test [2] the test system is SN12C renal.
In test [3] the test system is M19-MEL melanoma.
The test system of test [4] is MOLT-4 leukemia.
The subject of test [5] is SK-OV-3 ovarian.
Test [6] has as its system NCI-H226 lung.
Test [7] has as its system UO-31 renal.
The subject of test [8] is DLD-1 colon.
Test [9] deals with LXFL 529 NSCLC.
Test [10] deals with HOP-62 NSCLC.
For test [11], the system named is ACHN renal.
Test [12] deals with PC-3 prostate.

Each structure is given as a SMILES string.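 48-hour exposure; five concentrations; linearly interpolated endpoints. Abbreviation: GI50, concentration required for 50% inhibition of growth. TGI is the concentration that stops growth completely.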 A value given as a limit tells only on which side of the number the result lay.

`O=C(c1ccccc1)N1C2CCC1C(C(F)(F)F)=C2C(F)(F)F`: the TGI in test [1], in test [2], in test [3], in test [4], in test [5] and in [6] was greater than 100 µM in each case. The TGI in test [7], in test [8], in test [9] and in test [10] was greater than 100 µM each time.
As for `NS(=O)(=O)c1ccc(NC2=CC(=O)C(=O)c3ccccc32)cc1`, the TGI in test [1], in [2], in test [3], in test [4], in test [5] and in [6] was greater than 100 µM in each case. Further, the TGI in test [11], in [7], in test [8], in [9] and in test [10] was greater than 100 µM throughout.
Regarding `COc1c(C(=O)c2ccc([N+](=O)[O-])cc2)cc(C(C)(C)C)cc1C(C)(C)C`, the TGI in test [1] was 73.1 µM; in test [2], greater than 100 µM; in [3], greater than 100 µM; in [4], 39.9 µM; in test [5], greater than 100 µM; in test [11], greater than 100 µM. The TGI in test [7], in [8], in test [9] and in test [10] was greater than 100 µM in each case.
For `CC1CC(=O)Nc2ccccc2N1C(=O)CN1CCC(CCCCN(C)C)CC1` (stereo not drawn), the TGI in [1], in test [2], in test [3], in [4], in test [6] and in test [11] was greater than 100 µM throughout. In addition, the TGI in test [7], in test [8], in [9] and in test [10] was greater than 100 µM throughout.
Regarding `CCOC(=O)CSC(=O)NCCCl`, the TGI in test [1], in test [2], in test [4], in test [5], in [6] and in test [11] was greater than 100 µM each time. For the same molecule, the TGI in test [7], in test [8], in [9] and in [10] was greater than 100 µM in each case. For the same molecule, the GI50 in [4] is greater than 100 µM.
Consider `O=C(c1ccccc1)[C@H]1Nc2ccc(Cl)cc2C2c3ccccc3CC21` (stereo partly drawn), for which the TGI in test [1], in [2], in test [3], in test [4], in test [6] and in test [11] was greater than 100 µM in each case. For the same molecule, the TGI in test [7], in [8], in test [9] and in test [10] was greater than 100 µM in each case.
For the molecule `CCCCCCCCN(CCCCCCCC)CCCCCCNc1cc(OC)cc2cccnc12`, the GI50 was 4.18 µM in test [12]; 2.58 µM in test [2]; 16.3 µM in [4]; 15.3 µM in [5]; 17 µM in test [6]; 11 µM in test [11]. Besides, the GI50 is 10.9 µM in [7] and 11.1 µM in [10]. Moreover, the TGI in [12] worked out at 19 µM; in [2], 6.9 µM; in test [4] it was 42.9 µM; in [5], 28.8 µM; in [6], 33.7 µM; in test [11], 23.7 µM. Besides, the TGI in test [7] is 24.4 µM; in [10], 23.5 µM.
Turning to `CC(/C(=N\Nc1ccccc1)c1ccc(O)cc1)C1C(=O)Oc2ccccc21` (stereo not drawn), the TGI in test [1], in test [2], in test [3], in test [4], in test [11] and in test [7] was greater than 100 µM in each case. The TGI in test [8], in [9] and in test [10] was greater than 100 µM throughout.
For the molecule `CCN1C(=O)N(CC)C2Nn3c(s/c(=C\c4ccccc4Br)c3=O)=NC21` (stereo not drawn), the GI50 in test [12] was 1.86 µM; in test [2] it was 3.17 µM; in [4], 2.28 µM; in [5], 2.15 µM; in test [6], 6.31 µM; in test [11] it was 1.33 µM. In addition, the GI50 is 2 µM in [7] and 2.81 µM in test [10]. The TGI in [12] is greater than 100 µM; in test [2], 27.8 µM; in test [4], 23.2 µM; in [5], 7.7 µM; in [6] it was greater than 100 µM; in [11], greater than 100 µM. Besides, the TGI in test [7] and in [10] was greater than 100 µM throughout.
As to `Cc1ccc(-c2cc3c(SCC(=O)Nc4cc(C(F)(F)F)ccc4Cl)nccn3n2)cc1`, the GI50 in test [12] was greater than 100 µM; in [2], greater than 100 µM; in test [4] it was greater than 100 µM; in test [5], 69.4 µM; in test [6] it was greater than 100 µM; in test [11], 6.17 µM. For the same molecule, the GI50 in [7] was greater than 100 µM; in [10], 58.2 µM. The TGI in test [12], in test [2], in test [4], in [5], in test [6] and in test [11] was greater than 100 µM each time. Further, the TGI in test [7] and in [10] was greater than 100 µM in each case.
Regarding `CCOC(=O)C1C2CCC(C2)C1(CCl)C(=O)OCC` (stereo not drawn), the TGI in [1], in [2], in test [3], in test [4], in test [5] and in test [6] was greater than 100 µM throughout. Also, the TGI in test [11], in test [7], in [9] and in test [10] was greater than 100 µM throughout.
As to `C=CC(C1=CC(=O)C(OC)=CC1=O)c1ccccc1` (stereo not drawn), the TGI in test [12] came out at 25.7 µM; in test [2] it was 28 µM; in test [4], 5.81 µM; in test [5] it was 42.2 µM; in [6], 39.6 µM; in test [11], 27.4 µM. Besides, the values for the TGI in test [7] and in test [10] were 29.6 µM and 32.4 µM, respectively.
Turning to `CCN(CC)CCOc1ccccc1/C=C/c1noc2ccccc12`, the TGI in [12] stood at 19.8 µM; in test [2], 24.6 µM; in test [4], 76.7 µM; in [5], 34.3 µM; in [6] it was 30.5 µM; in test [11], 25.9 µM. Further, the figures for the TGI in test [7] and in test [10] were 19.3 µM and 31.3 µM, respectively.
On to `COC(=O)C(CC(C)C)NC(=O)NC12CC3CC(CC(F)(C3)C1)C2` (stereo not drawn), for which the TGI in test [1], in test [3], in test [4], in test [5], in [11] and in test [7] was greater than 100 µM in each case. In addition, the TGI in test [8], in [9] and in [10] was greater than 100 µM in each case.
Consider `COc1ccc(C(=O)COC(=O)[C@H](C[Se][Se]C[C@H](NC(=O)c2ccc(Br)cc2F)C(=O)OCC(=O)c2ccc(OC)cc2)NC(=O)c2ccc(Br)cc2F)cc1`, for which the GI50 in test [12] was 0.318 µM; in test [2], 1.04 µM; in [4] it was 2.63 µM; in test [5], 0.441 µM; in [6] it was 0.581 µM; in [11] it was 0.884 µM. Further, the GI50 in test [7] is 0.579 µM; in [10], 0.415 µM. For the same molecule, the TGI stood at 1.41 µM in [12]; 2.49 µM in test [2]; 17.8 µM in [4]; 1.64 µM in test [5]; 2.07 µM in [6]; 2.49 µM in [11]. Also, the TGI in test [7] was found to be 1.68 µM; in test [10] it was 1.83 µM.
Take `O=C(/C(=C\c1ccc([N+](=O)[O-])cc1)S(=O)Cc1ccc(F)cc1)c1ccc(F)cc1` (stereo not drawn): the GI50 was 1.69 µM in [12]; 1.9 µM in [2]; 1.51 µM in test [4]; 11.8 µM in [5]; 4.32 µM in test [6]; 2.33 µM in test [11]. Moreover, the GI50 is 1.52 µM in [7] and 2.74 µM in test [10]. Moreover, the TGI in test [12] turned out to be 3.47 µM; in test [2], 3.99 µM; in [4] it was 5.06 µM; in test [5], 24.2 µM; in [6], 21.9 µM; in test [11] it was 6.51 µM. Besides, the TGI in test [7] was determined as 3.23 µM; in [10], 8.28 µM.
On to `CC[P+](C)(C)c1ccccc1`, for which the TGI in [1], in [2], in test [3], in [4], in test [5] and in test [11] was greater than 100 µM in each case. Besides, the TGI in [7], in test [8], in [9] and in [10] was greater than 100 µM each time.
Regarding `COC(=O)/C(=N\Nc1nc(=S)[nH]n1N)C(C#N)c1ccccc1` (stereo not drawn), the TGI in [2], in test [3], in test [4], in test [5], in test [6] and in test [11] was greater than 100 µM throughout. The TGI in test [7], in test [8], in test [9] and in [10] was greater than 100 µM each time.
As to `O=CNc1ncn[nH]1`, the TGI in test [12], in test [2], in test [4], in [5], in test [6] and in test [11] was greater than 100 µM each time. In addition, the TGI in [7] and in [10] was greater than 100 µM throughout.
Consider `CNC(=O)OCc1c2ccncc2c(C)c2c1[nH]c1ccccc12`, for which the TGI in test [12] was 20.7 µM; in test [2], 1.94 µM; in test [4], greater than 100 µM; in test [5], 1.78 µM; in test [6] it was 1.25 µM; in [11] it was 0.522 µM. Also, the TGI in [7] amounted to 0.966 µM; in [10], 5 µM.
Turning to `Cc1ccc2ncnc(N(CC(C)C)CC(C)C)c2c1`, the GI50 in [12] is 11 µM; in [2] it was 17.9 µM; in test [4] it was 7.6 µM; in [5], 14.2 µM; in test [6] it was 15.2 µM; in test [11] it was 15.3 µM. Moreover, the figures for the GI50 in test [7] and in [10] were 22.2 µM and 15.5 µM, respectively. In addition, the TGI in test [12] is 27.8 µM; in [2], 38.7 µM; in test [4] it was 38.4 µM; in [5] it was 29.7 µM; in [6] it was 34.8 µM; in [11] it was 31.5 µM. Also, the TGI in test [7] was greater than 100 µM; in test [10] it was 31.2 µM.
In the case of `c1cc2[nH]ncc2cc1-c1nc2ccc3[nH]ncc3c2c2c1CCCC2`, the GI50 in test [12] was 1.44 µM; in [2] it was 2.53 µM; in test [4], 1.13 µM; in [5] it was 0.781 µM; in test [6], 1.73 µM; in [11], 0.583 µM. Besides, the GI50 in [7] is 1.33 µM; in test [10], 1.39 µM. The TGI was 21.5 µM in test [12]; 13.4 µM in [2]; greater than 20.9 µM in [4]; 7.79 µM in test [6]; 10.7 µM in test [11]; 4.54 µM in test [7]. In [10], the TGI was determined as 9.11 µM.
With `CC(=O)Nc1cc(N(CCOS(C)(=O)=O)CCOS(C)(=O)=O)ccc1N=O`, the TGI in [1], in [3], in [4], in [6], in [11] and in test [7] was greater than 100 µM each time. In addition, the TGI in test [8], in test [9] and in test [10] was greater than 100 µM throughout.
`CN(C)CCNC(=O)C(C)(C)Oc1ccc(C(=O)c2ccc(Cl)cc2)cc1Cl`: the GI50 in test [12] is 5.84 µM; in test [2], 3.59 µM; in [4], 3.26 µM. The TGI in test [12] is 24 µM; in test [2], 26.7 µM; in test [4], greater than 59.8 µM; in [5] it was 29.6 µM; in [6], 29 µM; in test [11] it was 23 µM. Besides, the TGI in test [7] amounted to 22.8 µM; in test [10] it was 23.9 µM.
